From patent US10738070B2, “Mannose-derived antagonists of FimH useful for treating disease” (Fimbrion Therapeutics, Inc., priority 2016, dated 2020)

What follows are compounds tested against T1, FimH (Escherichia coli, UniProt Q1R2J4) (assay: Hemagglutination inhibition (HAI) assay with UTI89 bacteria and guinea pig red blood cells). Details: concentration reducing bacterial agglutination of guinea pig red blood cells by greater than 90%; UTI89 bacteria.
T1 construct: endogenous in cells; host or cells: E. coli UTI89 bacteria
Format: cell-based
Experimental: “HAI or EC>90” is that concentration of the FimH inhibitor/antagonist which reduces the bacterial agglutination of guinea pig red blood cells by greater than 90%.
HAI Assay The hemagglutination inhibition (HAI) assay was performed with UTI89 bacteria and guinea pig red blood cells, as previously described (S. J. Hultgren, W. R. Schwan, A. J. Schaeffer, J. L. Duncan Infect. Immun. 1986, 54, 613-620). Compounds not listed were not tested.
In the case of Cc1cc(-c2cncc(C(=O)O)c2)ccc1O[C@H]1O[C@H](CO)[C@@H](O)[C@H](O)[C@@H]1O [Example 24, 5-[4′-(α-D-mannopyranosyloxy)-3′-methylphenyl]-3-pyridinecarboxylic acid], the “HAI titer EC>90” value is reported as 0.25 µM. Cc1cc(-c2cccc3cnccc23)ccc1O[C@H]1O[C@H](CO)[C@@H](O)[C@H](O)[C@@H]1O [Example 15, 5-[4′-(α-D-mannopyranosyloxy)-3′-methylphenyl]-isoquinoline] was tested, and the “HAI titer EC>90” value was 0.062 µM. For Cc1cc(-c2ccc3ccn(C(C)C)c(=O)c3c2)ccc1O[C@H]1O[C@H](CO)[C@@H](O)[C@H](O)[C@@H]1O [Example 26, 2-isopropyl-7-[4′-(α-D-mannopyranosyloxy)-3′-methylphenyl]-1(2H)-isoquinolinone], the “HAI titer EC>90” value was 0.043 µM. In the case of CNC(=O)c1cccc(-c2ccc(O[C@H]3O[C@H](CO)[C@@H](O)[C@H](O)[C@@H]3O)c(C#N)c2)c1 [Example 39, 4′-(α-D-mannopyranosyloxy)-3′-cyano-N-methyl-1,1′biphenyl-3-carboxamide], the “HAI titer EC>90” value is reported as 0.188 µM. With Cc1cc(-c2ccc3c(c2)C(=O)N(C(C)C)CC3)ccc1O[C@H]1O[C@H](CO)[C@@H](O)[C@H](O)[C@@H]1O [Example 27, 2-isopropyl-3,4-Dihydro-7-[4′-(α-D-mannopyranosyloxy)-3′-methylphenyl]-1(2H)-isoquinolinone] the “HAI titer EC>90” value was 0.032 µM. In the case of Cc1cc(-n2cc(-c3cccc(C(=O)O)c3)nn2)ccc1O[C@H]1O[C@H](CO)[C@@H](O)[C@H](O)[C@@H]1O [Example 5, 2-methyl-4-[4-(3-carboxyphenyl)-1H-1,2,3-triazol-1-yl]phenyl α-D-mannopyranoside], the “HAI titer EC>90” value is reported as 0.062 µM. With COC(=O)c1cncc(-c2ccc(O[C@H]3O[C@H](CO)[C@@H](O)[C@H](O)[C@@H]3O)c(C)c2)c1 [Example 11, 5-[4′-(α-D-mannopyranosyloxy)-3′-methylphenyl]-3-pyridinecarboxylic acid methyl ester] the “HAI titer EC>90” value was 0.032 µM. In the case of Cc1cc(-n2cc(-c3ccccc3N)nn2)ccc1O[C@H]1O[C@H](CO)[C@@H](O)[C@H](O)[C@@H]1O [Example 28, 2-methyl-4-[4-(2-aminophenyl)-1H-1,2,3-triazol-1-yl]phenyl α-D-mannopyranoside], the “HAI titer EC>90” value is reported as 0.15 µM. In the case of CNC(=O)c1cc(C(=O)NCCCCCCNC(=O)CCCCC[N+]2=C(/C=C/C=C/C=C3/c4ccc5ccccc5c4C(C)(C)N3C)C(C)(C)c3ccc4ccccc4c32)cc(-c2ccc(OC3OC(CO)C(O)C(O)C3O)c(C)c2)c1 [Example 22, N^3-(Cyanine5.5)-4′-(α-D-mannopyranosyl)-N^5,3′-dimethyl-[1,1′biphenyl]-3,5-dicarboxamide chloride], the “HAI titer EC>90” value is reported as 2 µM. In the case of Cc1cc(Oc2ccccc2[N+](=O)[O-])c([N+](=O)[O-])cc1O[C@H]1O[C@H](CO)[C@@H](O)[C@H](O)[C@@H]1O [Example 29, 2-[4-(α-D-mannopyranosyloxy)-5-methyl-2-nitrophenoxy]nitrobenzene], the “HAI titer EC>90” value is reported as 1 µM. In the case of Cc1cc(Oc2ccccc2C#N)c([N+](=O)[O-])cc1O[C@H]1O[C@H](CO)[C@@H](O)[C@H](O)[C@@H]1O [Example 35, 2-[4-(α-D-mannopyranosyloxy)-5-methyl-2-nitrophenoxy]benzonitrile], the “HAI titer EC>90” value is reported as 1 µM. For Cc1cc(-c2cccc3c(=O)[nH]ccc23)ccc1O[C@H]1O[C@H](CO)[C@@H](O)[C@H](O)[C@@H]1O [Example 16, 5-[4′-(α-D-mannopyranosyloxy)-3′-methylphenyl]-1(2H)-isoquinolinone], the “HAI titer EC>90” value was 0.125 µM. Cc1cc(-c2cccc3c(N)nccc23)ccc1O[C@H]1O[C@H](CO)[C@@H](O)[C@H](O)[C@@H]1O [Example 17, 5-[4′-(α-D-mannopyranosyloxy)-3′-methylphenyl]-isoquinolin-1-amine] was tested, and the “HAI titer EC>90” value was 0.062 µM. CS(=O)(=O)c1ccc(-c2ccc(O[C@H]3O[C@H](CO)[C@@H](O)[C@H](O)[C@@H]3O)c(Cl)c2)cc1 [Example 37, 3-chloro-4′-(methylsulfonyl)biphenyl-4-yl α-D-mannopyranoside] was tested, and the “HAI titer EC>90” value was 0.15 µM. In the case of Cc1cc(-n2cc(-c3ccccn3)nn2)ccc1O[C@H]1O[C@H](CO)[C@@H](O)[C@H](O)[C@@H]1O [Example 3, 2-methyl-4-[4-(pyridin-2-yl)-1H-1,2,3-triazol-1-yl]phenyl α-D-mannopyranoside], the “HAI titer EC>90” value is reported as 0.062 µM. With Cc1cc(Oc2ccc(C#N)cc2)c([N+](=O)[O-])cc1O[C@H]1O[C@H](CO)[C@@H](O)[C@H](O)[C@@H]1O [Example 32, 4-[4-(α-D-mannopyranosyloxy)-5-methyl-2-nitrophenoxy]benzonitrile] the “HAI titer EC>90” value was 0.5 µM. With Cc1cc(-c2cc3[nH]c(=O)[nH]c(=O)c3s2)ccc1O[C@H]1O[C@H](CO)[C@@H](O)[C@H](O)[C@@H]1O [Example 25, 6-[4′-(α-D-mannopyranosyloxy)-3′-methylphenyl]-thieno[3,2-d]pyrimidine-2,4(1H,3H)-dione] the “HAI titer EC>90” value was 0.024 µM. Cc1cc(Oc2ccc3ccncc3c2)c([N+](=O)[O-])cc1O[C@H]1O[C@H](CO)[C@@H](O)[C@H](O)[C@@H]1O [Example 34, 7-[4-(α-D-mannopyranosyloxy)-5-methyl-2-nitrophenoxy]isoquinoline] was tested, and the “HAI titer EC>90” value was 0.125 µM. Cc1cc(-c2cccc(C(=O)N3CCNCC3)c2)ccc1O[C@H]1O[C@H](CO)[C@@H](O)[C@H](O)[C@@H]1O [Example 8, 3-methyl-3′-(piperazin-1-ylcarbonyl)biphenyl-4-yl α-D-mannopyranoside] was tested, and the “HAI titer EC>90” value was 0.25 µM. CC(=O)Nc1ccccc1Oc1cc(C)c(O[C@H]2O[C@H](CO)[C@@H](O)[C@H](O)[C@@H]2O)cc1[N+](=O)[O-] [Example 30, N-(2-[4-(α-D-mannopyranosyloxy)-5-methyl-2-nitrophenoxy]phenyl)acetamide] was tested, and the “HAI titer EC>90” value was 1.5 µM. With Cc1cc(-c2cncc(C(=O)NC(C)C)c2)ccc1O[C@H]1O[C@H](CO)[C@@H](O)[C@H](O)[C@@H]1O [Example 9, 5-[4′-(α-D-mannopyranosyloxy)-3′-methylphenyl]-N-isopropyl-3-pyridinecarboxamide] the “HAI titer EC>90” value was 0.032 µM. With CC(=O)Nc1cccc(Oc2cc(C)c(O[C@H]3O[C@H](CO)[C@@H](O)[C@H](O)[C@@H]3O)cc2[N+](=O)[O-])c1 [Example 31, N-(3-[4-(α-D-mannopyranosyloxy)-5-methyl-2-nitrophenoxy]phenyl)acetamide] the “HAI titer EC>90” value was 0.5 µM. For Cc1cc(-c2ccc3[nH]nc(N)c3c2)ccc1O[C@H]1O[C@H](CO)[C@@H](O)[C@H](O)[C@@H]1O [Example 13, 5-[4′-(α-D-mannopyranosyloxy)-3′-methylphenyl]-1H-indazol-3-amine], the “HAI titer EC>90” value was 0.125 µM. With Cc1cc(-c2ccc3cc[nH]c(=O)c3c2)cc(C)c1OC1OC(CO)C(O)C(O)C1O [Example 38, 7-[4′-(α-D-mannopyranosyloxy)-3′,5′-dimethylphenyl]-1(2H)-iso-quinolinone] the “HAI titer EC>90” value was 0.266 µM. Cc1cc(-c2cccc(C(=O)NCCCCCCNC(=O)CCCCC[N+]3=C(/C=C/C=C/C=C4/c5ccc6ccccc6c5C(C)(C)N4C)C(C)(C)c4ccc5ccccc5c43)c2)ccc1OC1OC(CO)C(O)C(O)C1O.[Cl-] [Example 10, N-(Cyanine5.5)-4′-(α-D-mannopyranosyl)-3′-methyl-[1,1′biphenyl]-3-carboxamide chloride] was tested, and the “HAI titer EC>90” value was 16 µM. For Cc1cc(-c2ccnc(Cl)c2)ccc1OC1OC(CO)C(O)C(O)C1O [Example 6a, 4-(2′-chloropyrid-4′-yl)-2-methylphenyl α-D-mannopyranoside], the “HAI titer EC>90” value was 0.062 µM. In the case of Cc1cc(-c2cccc(-c3nnn[nH]3)c2)ccc1O[C@H]1O[C@H](CO)[C@@H](O)[C@H](O)[C@@H]1O [Example 18, 3-Methyl-3′-(2H-tetrazol-5-yl)[1,1′-biphenyl]-4-yl α-D-mannopyranoside], the “HAI titer EC>90” value is reported as 0.125 µM. Cc1cc(-c2ccnc(-c3ccnc(Cl)c3)c2)ccc1OC1OC(CO)C(O)C(O)C1O [Example 6b, 4-[2′-(2″-chloropyrid-4″-yl)-pyrid-4′-yl]-2-methylphenyl α-D-mannopyranoside] was tested, and the “HAI titer EC>90” value was 0.062 µM. With Cc1cc(-c2cccc(C(=O)N3CCOCC3)c2)ccc1O[C@H]1O[C@H](CO)[C@@H](O)[C@H](O)[C@@H]1O [Example 7, 3-methyl-3′-(morpholin-4-ylcarbonyl)biphenyl-4-yl α-D-mannopyranoside] the “HAI titer EC>90” value was 0.25 µM. For Cc1cc(-c2ccc3[nH]nc(C)c3c2)ccc1O[C@H]1O[C@H](CO)[C@@H](O)[C@H](O)[C@@H]1O [Example 12, 3-Methyl-5-[4′-(α-D-mannopyranosyloxy) 3′-methylphenyl]-1H-indazole], the “HAI titer EC>90” value was 0.062 µM. With Cc1cc(Oc2cccc(C#N)c2)c([N+](=O)[O-])cc1O[C@H]1O[C@H](CO)[C@@H](O)[C@H](O)[C@@H]1O [Example 1, 3-[4-(α-D-mannopyranosyloxy)-5-methyl-2-nitrophenoxy]benzonitrile] the “HAI titer EC>90” value was 0.125 µM. For CC(=O)Nc1ccc(Oc2cc(C)c(O[C@H]3O[C@H](CO)[C@@H](O)[C@H](O)[C@@H]3O)cc2[N+](=O)[O-])cc1 [Example 33, N-(4-[4-(α-D-mannopyranosyloxy)-5-methyl-2-nitrophenoxy]phenyl)acetamide], the “HAI titer EC>90” value was 0.25 µM. Cc1cc(Oc2ccc3cccnc3c2)c([N+](=O)[O-])cc1O[C@H]1O[C@H](CO)[C@@H](O)[C@H](O)[C@@H]1O [Example 36, 7-[4-(α-D-mannopyranosyloxy)-5-methyl-2-nitrophenoxy]quinoline] was tested, and the “HAI titer EC>90” value was 0.5 µM. In the case of CNC(=O)c1cc(C(=O)O)cc(-c2ccc(O[C@H]3O[C@H](CO)[C@@H](O)[C@H](O)[C@@H]3O)c(C)c2)c1 [Example 23, 4′-(α-D-mannopyranosyloxy)-3′-methyl-5-[(methylamino)carbonyl]-[1,1′biphenyl]-3-carboxylic acid], the “HAI titer EC>90” value is reported as 0.032 µM.
